In patent publication US4663457A, “1-cyclopropyl-6,7-dihalo-1,4-dihydro-4-oxo-1,8-naphthyridine -3-carboxylic acid and their esters, useful as intermediates for preparing the 7-amine substituted naphthyridines” (Warner-Lambert Company, priority 1985, dated 1987):
Converted amounts (≈) assume the structure as drawn. Like-named read-outs stand apart in the source and are kept apart here.

Experiments:
Assay in all cases: in vitro antibacterial activity, MIC by microtitration dilution method
Assay type in all cases: cell-based
Escherichia coli Vogel = details: read-out: Minimal Inhibitory Concentration MIC
From the text: (§1) The compounds of the invention display antibacterial activity when tested by the microtitration dilution method as described in Heifetz, et al, Antimicr. Agents & Chemoth., 6, 124 (1974), which is incorporated herein by reference.
(§2) By use of the above referenced method, the followed minimum inhibitory concentration values (MICs in μg/ml) were obtained for representative compounds of the invention.

[1] = system: Enterobacter cloacae MA 2646; details: MA2646, read-out: Minimal Inhibitory Concentration MIC
From the text: as §1, §2

[2] = system: Staphylococcus aureus H 228; details: H228, read-out: Minimal Inhibitory Concentration MIC
From the text: as §1, §2

[3] = system: Staphylococcus aureus UC-76; details: UC76, read-out: Minimal Inhibitory Concentration MIC
From the text: as §1, §2

Proteus rettgeri M 1771 = details: Providencia rettgeri, M1771, read-out: Minimal Inhibitory Concentration MIC
From the text: as §1, §2

[4] = system: Streptococcus pneumoniae SV-1; details: SV1, read-out: Minimal Inhibitory Concentration MIC
From the text: as §1, §2

[5] = system: Klebsiella pneumoniae MGH-2; details: MGH2, read-out: Minimal Inhibitory Concentration MIC
From the text: as §1, §2

[6] = system: Pseudomonas aeruginosa UI-18; details: UI18, read-out: Minimal Inhibitory Concentration MIC
From the text: as §1, §2

[7] = system: Streptococcus faecalis MGH-2; details: Enterococcus faecalis, MGH2, read-out: Minimal Inhibitory Concentration MIC
From the text: as §1, §2

[8] = system: Streptococcus pyogenes C-203
From the text: Agents & Chemoth., 6, 124 (1974), which is incorporated herein by reference.

[9] = C203, in vitro, Streptococcus pyogenes C-203, read-out: Minimal Inhibitory Concentration MIC

SMILES	MIC (Escherichia coli Vogel) [µg/mL]	MIC [1] [µg/mL]	MIC [2] [µg/mL]	MIC [3] [µg/mL]	MIC (Proteus rettgeri M 1771) [µg/mL]	MIC [4] [µg/mL]	MIC [5] [µg/mL]	MIC [6] [µg/mL]	MIC [7] [µg/mL]	MIC [8, 9] [µg/mL]	MIC ([8]; Streptococcus pyogenes, C203, read-out: Minimal Inhibitory Concentration MIC) [µg/mL]
O=C(O)c1cn(C2CC2)c2nc(N3CCNCC3)c(F)cc2c1=O [Ex. 1, 1-Cyclopropyl-6-fluoro-1,4-dihydro-4-oxo-7-(1-piperazinyl)-1,8-naphthyridine-3-carboxylic acid]	≤ 0.1	0.1 (≈ 0.301 µM)	1.6 (≈ 4.81 µM)	0.4 (≈ 1.2 µM)	0.2 (≈ 0.602 µM)	1.6 (≈ 4.81 µM)	0.1 (≈ 0.301 µM)	0.2 (≈ 0.602 µM)	1.6 (≈ 4.81 µM)	1.6 (≈ 4.81 µM)	
CN1CCN(c2nc3c(cc2F)c(=O)c(C(=O)O)cn3C2CC2)CC1 [Ex. 2, 1-Cyclopropyl-6-fluoro-1,4-dihydro-7-(4-methyl-1-piperazinyl)-4-oxo-1,8-naphthyridine-3-carboxylic acid]	≤ 0.1	≤ 0.1	0.4 (≈ 1.15 µM)	0.1 (≈ 0.289 µM)	0.4 (≈ 1.15 µM)	6.3 (≈ 18.2 µM)	≤ 0.1	0.4 (≈ 1.15 µM)	0.8 (≈ 2.31 µM)		3.1 (≈ 8.95 µM)
O=C(O)c1cn(C2CC2)c2c(F)c(N3CCNCC3)c(F)cc2c1=O [Ex. 3, 1-Cyclopropyl-6,8-difluoro-1,4-dihydro-4-oxo-7-(1-piperazinyl)-3-quinolinecarboxylic acid]	≤ 0.1	≤ 0.1	0.4 (≈ 1.15 µM)	≤ 0.1	≤ 0.1	0.8 (≈ 2.29 µM)	≤ 0.1	0.2 (≈ 0.573 µM)	0.4 (≈ 1.15 µM)	0.4 (≈ 1.15 µM)	
O=C(O)c1cn(C2CC2)c2c(F)c(N3CCC(O)C3)c(F)cc2c1=O (stereo not shown) [Ex. 4, 1-Cyclopropyl-6,8-difluoro-1,4-dihydro-7-(3-hydroxy-1-pyrrolidinyl)-4-oxo-3-quinolinecarboxylic acid]	0.1 (≈ 0.285 µM)	0.2 (≈ 0.571 µM)	0.025 (≈ 0.0714 µM)	0.013 (≈ 0.0371 µM)	0.2 (≈ 0.571 µM)	0.4 (≈ 1.14 µM)	0.05 (≈ 0.143 µM)	0.8 (≈ 2.28 µM)	0.1 (≈ 0.285 µM)	0.4 (≈ 1.14 µM)	
